The test system of one data set is AML CD34+ cells. Description: Release study of DMAPE in vitro, AML CD34+ cells (UFLC-MS/MS). Format: in vitro ADME, human. The note with it: 10 μM DMAPE, 24 h. The method, then: (§1) 1 × 10^5 cells (including sorted CD34^+ KG-1a cells and NBM cells) were seeded at 48-well plates (Corning, New York, USA) in the IMDM-based serum-free media for 1 h. The cells were then incubated with 10 μM DMAPE at 37 °C in the 5% CO2 incubator for 0, 12 or 24 h. The culture supernatant was collected by centrifugation at 3000 rpm for 10 min and evaporated to dryness at 30 °C using a CentriVap vacuum centrifugal concentrator. The resulting residue was reconstituted in 100 μL methanol, vortexed and centrifuged at 12000 rpm for 10 min. A 2 μL aliquot of the supernatant was injected for UFLC-MS/MS analysis (UFLC-MS/MS analysis method same as the pharmacokinetic study of DMAPE, see Additional method in Supplementary Materials).

In data set [1] the test system is NBM CD34+ (including hBMSCs) cells. Briefly: Release study of DMAPE in vitro, NBM CD34+ cells (UFLC-MS/MS). Format: in vitro ADME, human. The note with it: 10 μM DMAPE, 24 h. As to the method:
as §1

Another data set concerns the target T1, GCLC (Homo sapiens, UniProt P48506).
T1 construct: purchased Abcam
T1 sequence (P48506 1-637): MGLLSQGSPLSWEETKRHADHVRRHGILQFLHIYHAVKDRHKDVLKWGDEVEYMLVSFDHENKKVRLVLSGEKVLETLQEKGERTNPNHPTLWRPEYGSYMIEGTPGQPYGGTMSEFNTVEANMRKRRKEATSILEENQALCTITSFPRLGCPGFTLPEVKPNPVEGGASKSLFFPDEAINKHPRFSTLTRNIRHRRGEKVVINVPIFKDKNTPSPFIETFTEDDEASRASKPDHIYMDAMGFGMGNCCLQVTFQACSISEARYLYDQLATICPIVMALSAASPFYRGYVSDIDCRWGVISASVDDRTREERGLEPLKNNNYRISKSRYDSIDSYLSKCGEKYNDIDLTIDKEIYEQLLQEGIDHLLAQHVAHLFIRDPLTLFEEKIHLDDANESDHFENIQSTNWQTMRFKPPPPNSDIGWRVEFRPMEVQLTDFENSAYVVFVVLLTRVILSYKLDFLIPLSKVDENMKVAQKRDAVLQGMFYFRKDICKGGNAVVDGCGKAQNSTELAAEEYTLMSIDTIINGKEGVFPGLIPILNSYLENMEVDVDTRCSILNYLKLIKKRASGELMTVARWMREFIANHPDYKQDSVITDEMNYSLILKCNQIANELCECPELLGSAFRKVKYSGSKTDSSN
Description: BLI binding assay, GCLC. The method, then: The binding kinetics of PepE or PepA to purified recombinant proteins were determined using BLI on an Octet RED 96 system (ForteBio, Shanghai, China) following the manufacturer's protocol. All interaction analyses were performed at 25 °C in PBS with 0.2% DMSO. Purified recombinant proteins (0.9 μM, the TrxR1 full length and TrxR1 protein fragment were pre-reduced by 400 μM of NADPH before test) were pre-labeled with biotin using […] (Abcam) following the manufacturer's instruction. Loading of the Dip and Read Super Streptavidin (SSA) Biosensors (ForteBio) were conducted by exposing biotinylated proteins to biosensor tips for 2 h. The 96-well microplates used in the Octet were filled with 200 μL sample or buffer per well and agitated at 1000 rpm. The loaded biosensors were washed in buffer for 600 s and transferred to wells containing PepE at concentrations of 0.625, 1.25, 2.5, 5, and 10 μM or PepA at concentrations of 1.25, 2.5, 5, 10 and 20 μM, respectively, in the buffer. […] Reference measurements were conducted using the buffer instead of PepE (or PepA). A parallel set of SA unloaded biosensors was prepared to act as a control. The sample-sensorgrams were corrected by subtracting the double reference curve. Kinetic parameters (Kon and Kdis) and affinity (KD) were determined from a global fit to a 1:1 binding model of the data between proteins and PepE using Octet software (ForteBio).
In general terms: In BLI a coated tip is dipped into the sample, and binding shifts an interference pattern.

The test system of data set [2] is Trx-ASK1 complex in KG-1a CD34+ cells. Briefly: Trx1 immunoprecipitation, Trx-ASK1 interaction. Format: cell-based, human. The note with it: 0.5, 2.0, 5.0 μM. The method, then: The KG-1a CD34^+ cells were treated with PepE or vehicle control (DMSO) for 12 h. The cellular proteins were extracted by RIPA buffer and quantified by the Bradford method. For each cell lysate, a volume containing 1 mg protein was mixed with 1 μg anti-Trx1 antibody coupled to 20 μL protein G-Sepharose (Abcam) and tumbled at 4 °C for 2 h. The Sepharose beads were then washed three times at 4 °C with a washing buffer containing 50 mM Tris (pH = 7.4), 0.5 M NaCl, and 1 mM EGTA. The immunoprecipitated proteins were eluted and denatured by 2×SDS-PAGE loading buffer and then boiled for 5 min. The eluted solutions were then centrifuged at 12000 g; the supernatants were collected and stored at −20 °C for SDS-PAGE and western blot analyses.

A word on the Kd: it is the equilibrium constant for the complex coming apart. Low readings indicate tighter binding, high ones weaker binding. For orientation: kon means the rate constant with which the complex forms.

As for `COc1cc(C(c2cc(OC)c3c(c2)OCO3)[C@@H]2COC(=O)[C@H]2CN(C)CCO)cc2c1OCO2` [DMAPE, (2S,3S)-6-Methyl (hydroxyethyl) amino-2,6-dihydropeperomin E], the “DMAPE in culture with AML CD34+ cells” value in the data set on AML CD34+ cells is “could not be detected”. The “DMAPE remained in the culture media” value in data set [1] is listed as “about half”.

At GCLC, `C=C1C(=O)OC[C@H]1C(c1cc(OC)c2c(c1)OCO2)c1cc(OC)c2c(c1)OCO2` [PepE, Peperomin E] had a Kd of 1340 µM and a kon of 465 M⁻¹ s⁻¹. For the same molecule, the koff on GCLC (read-out: Kdis) was determined as 0.625 s⁻¹. Also, in data set [2], the “amount of ASK1 bound to Trx1” value is on record as “dose-dependent decrease”.

These data come from PMC6434189, “Peperomin E and its orally bioavailable analog induce oxidative stress-mediated apoptosis of acute myeloid leukemia progenitor cells by targeting thioredoxin reductase” (Redox Biology, 2019).
